Values quoted from earlier work as cited in patent US5283250A, “Quinolinyl/quinolinylalkyl-N-terminal amino hydroxy” (G. D. Searle & Co., priority 1991, dated 1994).
Square brackets hold non-standard residues; d marks the D form. Peptide text beside a SMILES is read from it. * marks the point of attachment. Sta = CC(C)C[C@H](N)[C@@H](O)CC(=O)O; Isovaleryl = CC(C)CC(=O)*

Legend:
renin = conditions: Umezawa et al 1970
pepsin = conditions: Umezawa et al 1970
cathepsin D = conditions: Umezawa et al 1970
hog renin = conditions: after injection of hog renin into nephrectomized rats; Gross et al 1971

For `CC(C)CC(=O)N[C@H](C(=O)N[C@H](C(=O)N[C@@H](CC(C)C)[C@@H](O)CC(=O)N[C@@H](C)C(=O)N[C@@H](CC(C)C)[C@@H](O)CC(=O)O)C(C)C)C(C)C` [pepstatin] (Isovaleryl-VV[Sta]A[Sta]-OH), the “inhibition of renin (in words)” value (renin) is given as “inhibitor”, the “inhibition of pepsin (in words)” value (pepsin) is given as “inhibitor” and the “inhibition of cathepsin D (in words)” value (cathepsin D) is given as “inhibitor”. The “blood pressure in vivo (in words)” value (hog renin) was “reduce blood pressure in vivo” and the “inhibition of acid proteases in addition to renin (in words)” value (acid proteases) was “inhibiting acid proteases in addition to renin”.
